Article PMC7158045 (BMC Plant Biology, 2020)
Structures can show the parent of a compound that is named as a salt.

How the values were obtained:
Experiment in all cases: biochemical
ZmDRIK1-R187-P492 = target: T1, ZmDRIK1-R187-P492 (Zea mays, UniProt C0P4K9); conditions: read-out: dTm B, DSF, Boltzmann fit, 0.1% DMSO
T1 construct: kinase domain, R187-P492
T1 sequence (C0P4K9 1-514): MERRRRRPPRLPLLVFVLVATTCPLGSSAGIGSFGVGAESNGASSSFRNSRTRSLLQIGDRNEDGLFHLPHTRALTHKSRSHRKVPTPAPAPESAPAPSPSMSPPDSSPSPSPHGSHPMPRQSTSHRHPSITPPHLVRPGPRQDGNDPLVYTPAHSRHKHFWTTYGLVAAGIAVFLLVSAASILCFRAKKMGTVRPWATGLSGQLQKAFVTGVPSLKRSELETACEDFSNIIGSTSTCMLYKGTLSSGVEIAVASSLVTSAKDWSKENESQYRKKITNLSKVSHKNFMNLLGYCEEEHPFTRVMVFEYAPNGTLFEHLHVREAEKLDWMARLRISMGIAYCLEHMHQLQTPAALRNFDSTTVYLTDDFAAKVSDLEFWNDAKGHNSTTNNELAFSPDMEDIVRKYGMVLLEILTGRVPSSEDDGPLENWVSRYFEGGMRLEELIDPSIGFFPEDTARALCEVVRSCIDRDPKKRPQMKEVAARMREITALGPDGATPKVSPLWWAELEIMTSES

ZmDRIK1-K217-S514 = target: T2, ZmDRIK1-K217-S514 (Zea mays, UniProt C0P4K9); conditions: read-out: dTm B, sheet ZmDRIK1-K217-S514;; DSF, Boltzmann fit, 0.1% DMSO
T2 construct: kinase domain, K217-S514
T2 sequence (C0P4K9 1-514): T1 sequence (C0P4K9 1-514)

[1] = target: T3, ZmDRIK1 (DROUGHT RESPONSIVE INACTIVE KINASE 1), kinase domain (Zea mays, UniProt C0P4K9); conditions: read-out: dTm B, sheet ZmDRIK1-R187-S514;; DSF, Boltzmann fit, 0.1% DMSO
T3 construct: gene ZEAMMB73_Zm00001d028770; ZmDRIK1-KD R187-S514 (kinase domain)
T3 sequence (C0P4K9 187-514): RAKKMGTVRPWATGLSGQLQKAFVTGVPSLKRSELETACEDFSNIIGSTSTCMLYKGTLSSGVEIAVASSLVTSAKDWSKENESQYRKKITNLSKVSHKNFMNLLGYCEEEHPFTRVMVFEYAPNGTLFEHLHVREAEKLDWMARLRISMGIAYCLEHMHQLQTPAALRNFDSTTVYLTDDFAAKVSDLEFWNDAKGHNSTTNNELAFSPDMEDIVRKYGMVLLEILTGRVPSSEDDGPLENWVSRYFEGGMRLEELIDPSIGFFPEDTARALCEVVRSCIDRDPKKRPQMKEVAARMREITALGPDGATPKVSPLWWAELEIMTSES

ZmDRIK1-K217-P492 = target: T4, ZmDRIK1-K217-P492 (Zea mays, UniProt C0P4K9); conditions: read-out: dTm B, sheet ZmDRIK1-K217-P492;; DSF, Boltzmann fit, 0.1% DMSO
T4 construct: kinase domain, K217-P492
T4 sequence (C0P4K9 1-514): T1 sequence (C0P4K9 1-514)

SMILES	ΔTm at 10 µM (ZmDRIK1-R187-P492) [°C]	ΔTm at 10 µM (ZmDRIK1-K217-S514) [°C]	ΔTm at 10 µM [1] [°C]	ΔTm at 10 µM (ZmDRIK1-K217-P492) [°C]
Oc1cccc(-c2nc(N3CCOCC3)c3oc4ncccc4c3n2)c1 [PI-103]	-0.366	-0.559	-0.608	-1.14
Cc1ccc([N+](=O)[O-])cc1S(=O)(=O)N(C)/N=C/c1cnc2ccc(Br)cn12 [PIK-75]	-0.296	-0.221	-0.734	-1.46
CC(=O)Nc1nc(C)c(-c2ccc(Cl)c(S(=O)(=O)NCCO)c2)s1 [PIK-93]	-0.0815	-0.175	-1.08	-0.556
CCCS(=O)(=O)Nc1ccc(F)c(C(=O)c2c[nH]c3ncc(Cl)cc23)c1F [PLX-4720]	-0.12	-0.478	-1.27	-0.653
Cc1ccc(-c2nn(C(C)(C)C)c3ncnc(N)c23)cc1 [PP1]	-0.136	-0.253	-0.972	-1.01
CC(C)(C)n1nc(-c2ccc(Cl)cc2)c2c(N)ncnc21 [PP2]	-0.394	-0.458	-0.713	-1.25
Nc1ncnc2c1c(-c1cnc3[nH]ccc3c1)nn2C1CCCC1 [PP121]	-0.369	-0.432	-0.595	-1.06
COc1ccc(Cl)cc1NC(=O)Nc1cc(C)nc2ccccc12 [PQ 401]	-0.365	-0.394	-1.59	-0.962
NC(=O)c1cnc(N[C@@H]2CCCC[C@@H]2N)nc1Nc1cccc(-n2nccn2)c1 [PRT062607 (P505-15)]	-0.212	-0.551	-0.709	-0.348
C1=N/C2=N/c3ccc(OCCN4CCCC4)c(c3)COC/C=C/COCc3cccc(c3)C(=C1)N2 [Pacritinib (SB1518)]	-0.0853	0.03	0.0273	1.04
CC(=O)c1c(C)c2cnc(Nc3ccc(N4CCNCC4)cn3)nc2n(C2CCCC2)c1=O [Palbociclib (PD-0332991) HCl]	-0.154	-0.31	-0.906	-0.775
COc1ccc(COc2cc3oc(=O)c4cc(C(C)O)ccc4c3cc2OC)cc1 (stereo not shown) [Palomid 529 (P529)]	-0.229	-0.134	-0.623	-0.76
CCOc1cc2ncc(C#N)c(Nc3ccc(F)c(Cl)c3)c2cc1NC(=O)/C=C/CN(C)C [Pelitinib (EKB-569)]	-0.494	-0.496	-0.77	-0.854
N=C(N)NC(=N)NCCc1ccccc1 [Phenformin HCl]	-0.125	-0.473	-0.596	-1.3
Oc1cc(O)cc(/C=C/c2ccc(O)c(O)c2)c1 [Piceatannol]	0.733	1.1	-0.69	-0.567
O=C(NC[C@H](O)CO)c1ccncc1Nc1ccc(I)cc1F [Pimasertib (AS-703026)]	-0.33	-0.594	-0.651	-0.841
Cc1ccc(C(=O)Nc2ccc(CN3CCN(C)CC3)c(C(F)(F)F)c2)cc1C#Cc1cnc2cccnn12 [Ponatinib (AP24534)]	-0.39	-0.482	-0.951	-0.505
O=c1c(O)c(-c2ccc(O)c(O)c2)oc2cc(O)cc(O)c12 [Quercetin]	-0.357	-0.0338	-0.63	-1.11

Second part, the compound after the results:

ΔTm at 10 µM (ZmDRIK1-R187-P492) [°C]	ΔTm at 10 µM (ZmDRIK1-K217-S514) [°C]	ΔTm at 10 µM [1] [°C]	ΔTm at 10 µM (ZmDRIK1-K217-P492) [°C]	SMILES
-3.69	-1.21	-11.5	-4.77	CC(C)(C)c1cc(NC(=O)Nc2ccc(-c3cn4c(n3)sc3cc(OCCN5CCOCC5)ccc34)cc2)no1 [Quizartinib (AC220)]
-0.297	-0.339	-0.939	-1.09	COc1ccc(F)c(F)c1C(=O)c1cnc(NC2CCN(S(C)(=O)=O)CC2)nc1N [R547]
0.716	-0.42	-0.456	-0.48	O=C(NCc1cccc(O)c1)Nc1nc(-c2ccncc2)cs1 [RKI-1447]
-1.03	-0.483	-1.41	-1.45	CO[C@H]1C[C@@H]2CC[C@@H](C)[C@@](O)(O2)C(=O)C(=O)N2CCCC[C@H]2C(=O)O[C@H]([C@H](C)C[C@@H]2CC[C@@H](O)[C@H](OC)C2)CC(=O)[C@H](C)/C=C(\C)[C@@H](O)[C@@H](OC)C(=O)[C@H](C)C[C@H](C)/C=C/C=C/C=C/1C [Rapamycin (Sirolimus)]
-0.163	-0.254	-1.12	-0.93	COc1cc(F)c(F)c(Nc2ccc(I)cc2F)c1NS(=O)(=O)C1(C[C@H](O)CO)CC1 [Refametinib (RDEA119)]
-5.88	-0.13	-15.3	-8.99	CNC(=O)c1cc(Oc2ccc(NC(=O)Nc3ccc(Cl)c(C(F)(F)F)c3)c(F)c2)ccn1 [Regorafenib (BAY 73-4506)]
-0.365	-0.213	-0.675	-1.84	CO[C@H]1C[C@@H]2CC[C@@H](C)[C@@](O)(O2)C(=O)C(=O)N2CCCC[C@H]2C(=O)O[C@H]([C@H](C)C[C@@H]2CC[C@@H](OP(C)(C)=O)[C@H](OC)C2)CC(=O)[C@H](C)/C=C(\C)[C@@H](O)[C@@H](OC)C(=O)[C@H](C)C[C@H](C)/C=C/C=C/C=C/1C [Ridaforolimus (Deforolimus)]
-0.217	-0.421	-0.824	-0.805	COc1cc(OC)c(/C=C/S(=O)(=O)Cc2ccc(OC)c(NCC(=O)O)c2)c(OC)c1 [Rigosertib (ON-01910)]
-0.197	-0.33	-0.819	-1.24	Cn1cc(C2=C(c3cn(CCCSC(=N)N)c4ccccc34)C(=O)NC2=O)c2ccccc21 [Ro 31-8220 Mesylate]
-0.181	-0.272	-0.688	-0.827	CCn1c(N)c(C(=O)NC)c(=O)c2ccc(C#C[C@@](C)(O)COC)nc21 [SAR131675]
-18.3	2.58	0.194	1.22	Oc1ccc(-c2nc(-c3ccc(F)cc3)c(-c3ccncc3)[nH]2)cc1 [SB202190 (FHPI)]
-0.115	-0.35	-0.887	-1.29	Cn1cc(C2=C(c3ccc(Cl)cc3Cl)C(=O)NC2=O)c2ccccc21 [SB216763]
-0.167	-0.286	-0.734	-0.936	CN(C)CCOc1ccc(-c2nc(-c3ccncc3)c(-c3ccc4c(c3)CC/C4=N\O)[nH]2)cc1 [SB590885]
-0.27	-0.336	-1.1	-0.576	CN1CCC(CNc2ccc3ncc(-c4cccc(OC(F)(F)F)c4)n3n2)CC1 [SGI-1776 free base]
-0.0185	-0.351	-0.576	-0.7	Cn1cc(-c2ccc3nnc(Sc4ccc5ncccc5c4)n3n2)cn1 [SGX-523]
-2.86	-1.52	0.0373	-0.22	Oc1ccc(Nc2nc(-c3ccc(Cl)cc3)cs2)cc1 [SKI II]
-0.157	-0.356	-1.09	-0.701	N#C/C(=C(/N)Sc1ccc(N)cc1)c1ccccc1C(F)(F)F [SL-327]
0.139	-0.218	-0.708	-1.12	O=C1NC(=O)/C(=C/c2cccc(C(F)(F)F)c2)S1 [SMI-4a]
-0.103	-0.203	-1.09	-0.977	CC(C)(C)c1cnc(CSc2cnc(NC(=O)C3CCNCC3)s2)o1 [SNS-032 (BMS-387032)]
